Patent US7910559B2, “Decladinosyl-macrolides with anti-inflammatory activity” (GlaxoSmithKline istrazivacki centar Zagreb d.o.o., priority 2005, dated 2011)
Read-outs that look alike come from different tables or passages of the source.

Columns and labels:
Type in all cases: cell-based
human IL-8 = assay: Inhibition of IL-8 production by stimulated human peripheral blood leukocytes in vitro (ELISA); conditions: Homo sapiens, Leukocyte, PBL, read-out: Percentage of inhibition of IL-8 production; for inhibition at 10 µM: compound 10 μM; for inhibition at 50 µM: compound 50 μM
Experimental: (§1) Substances, used in in vitro experiments, were dissolved in dimethyl sulfoxide (DMSO) (Kemika, Croatia) at concentrations of 50 mM and 10 mM and were further diluted to the final concentrations of […] in 1 mL Dulbecco's modified Eagle medium (DMEM) supplemented with 1% heat inactivated fetal bovine serum (FBS), 1% glutamax, 50 U/ml penicillin, 50 μg/ml streptomycin and 2.5 μg/mL Fungizone (amphotericin B). Media and all media supplements were purchased from Gibco, Australia, except FBS that was from Sigma, USA.
(§2) Peripheral blood leukocytes (PBL) were obtained from venous blood of healthy volunteers by sedimentation on 2% dextran T-500 (Amersham Biosciences, USA) and subsequent centrifugations of leukocyte-rich plasma.
(§3) Peripheral blood leukocytes (PBL), isolated as described above, were seeded in a 48-well plate at a concentration of 3-5×10^6 cell per well in culture medium consisting of RPMI 1640 medium (Institute of Immunology, Croatia) supplemented with 10% heat-inactivated fetal calf serum (FCS, Biowhittaker, USA), 100 U/ml penicillin (Gibco, Australia), 100 μg/ml streptomycin (Gibco, Australia) and 2 mM L-glutamine (Gibco, Australia), and preincubated with the tested compounds for 2 h at 37° C., in an atmosphere of 5% CO2, and 90% humidity. Afterwards, stimuli (Sigma, USA) were added to a final concentration of 2 μg/mL lipopolysaccharide (LPS), 1 μg/mL phorbol 12-myristate 13-acetate (PMA) or 120 μg/mL zymosan. Samples were incubated overnight under conditions described above. At the end of incubation supernatants were transferred to eppendorf tubes and centrifuged for 10 min at 1500 g. Concentrations of human TNF-α, IL-1β, IL-6 and IL-8 were determined in cell supernatants by sandwich ELISA, using capture and detection antibodies (R&D, USA) according to manufacturer's recommendations.
(§4) Inhibition (as percentage) was calculated using the following formula: % inhibition=(1−concentration of cytokines in sample/concentration of cytokines in positive control)×100 where “positive control” refers to stimulated samples not treated with substances.

human IL-6 = assay: Inhibition of IL-6 production by stimulated human peripheral blood leukocytes in vitro (ELISA); conditions: Homo sapiens, Leukocyte, PBL, read-out: Percentage of inhibition of IL-6 production; for inhibition at 10 µM: compound 10 μM; for inhibition at 50 µM: compound 50 μM
Experimental: as §1, §2, §3, §4

human IL-1β = assay: Inhibition of IL-1β production by stimulated human peripheral blood leukocytes in vitro (ELISA); conditions: Homo sapiens, Leukocyte, PBL, read-out: Percentage of inhibition of IL-1β production; for inhibition at 10 µM: compound 10 μM; for inhibition at 50 µM: compound 50 μM
Experimental: as §1, §2, §3, §4

human TNF-α = assay: Inhibition of TNF-α production by stimulated human peripheral blood leukocytes in vitro (ELISA); conditions: Homo sapiens, Leukocyte, PBL, read-out: Percentage of inhibition of TNF-α production; for inhibition at 10 µM: compound 10 μM; for inhibition at 50 µM: compound 50 μM
Experimental: as §1, §2, §3, §4

A549 = conditions: human, 24 h
Experimental: (§5) Anti-inflammatory activity of compounds, i.e. observed inhibition of cytokine production and inhibition of proliferation in vitro, is not a consequence of their cytotoxicity.
(§6) Measurement of the succinate dehydrogenase activity in living cells was performed in order to assess the cytotoxicity of compounds of the invention. Cells were cultured for 24 hours in RPMI medium as described above at 37° C., in the presence of the tested compounds at concentrations of 50 μM and 12.5 μM. Afterwards, MTT [3-(4,5-dimethylthiazole-2-yl)-2,5-diphenyl tetrazolium bromide] (Promega, USA) as detection reagent was added and incubated for 0.5-2 hours. The amount of produced MTT-Formazan was determined spectrophotometrically at 490 nm (Mosmann, J. Immunol. Methods, 1983, 65: 55-63).
(§7) Percentage of viable cells was calculated using the following formula: % viable cells=[…]

THP-1 = conditions: human, 24 h
Experimental: as §5, §6, §7

Hep G2 = conditions: human, 24 h
Experimental: as §5, §6, §7

Compound	inhibition at 10 µM (human IL-8; LPS stimulation)	inhibition at 50 µM (human IL-8; LPS stimulation)	inhibition at 10 µM (human IL-8; PMA stimulation)	inhibition at 50 µM (human IL-8; PMA stimulation)	inhibition at 10 µM (human IL-8; zymosan stimulation)	inhibition at 50 µM (human IL-8; zymosan stimulation)	inhibition at 10 µM (human IL-6; LPS stimulation)	inhibition at 50 µM (human IL-6; LPS stimulation)	inhibition at 10 µM (human IL-6; PMA stimulation)	inhibition at 50 µM (human IL-6; PMA stimulation)	inhibition at 10 µM (human IL-6; zymosan stimulation)	inhibition at 50 µM (human IL-6; zymosan stimulation)	inhibition at 10 µM (human IL-1β; LPS stimulation)	inhibition at 50 µM (human IL-1β; LPS stimulation)	inhibition at 10 µM (human IL-1β; PMA stimulation)	inhibition at 50 µM (human IL-1β; PMA stimulation)	inhibition at 10 µM (human IL-1β; zymosan stimulation)	inhibition at 50 µM (human IL-1β; zymosan stimulation)	inhibition at 10 µM (human TNF-α; LPS stimulation)	inhibition at 50 µM (human TNF-α; LPS stimulation)	further results
CC[C@H]1OC(=O)[C@H](C)[C@@H](OC(=O)CCN(CC)CC)[C@H](C)[C@@H](O[C@@H]2O[C@H](C)C[C@H](N(C)C)C2O)[C@](C)(O)C[C@@H](C)CN(C)[C@H](C)[C@@H](O)[C@]1(C)O (stereo in doubt) [Example 12, 3-O-(3-Diethylamino-propionyl)-3-O-decladinosyl-azithromycin]	16%	51%	31%	27%	20%	52%	9%	19%	43%	93%	0%	96%	50%	71%	54%	92%	29%	72%	22%	0%	inhibition at 10 µM (human TNF-α; PMA stimulation): 30%; inhibition at 50 µM (human TNF-α; PMA stimulation): 75%; inhibition at 10 µM (human TNF-α; zymosan stimulation): 33%; inhibition at 50 µM (human TNF-α; zymosan stimulation): 0%; Percentage of viable cells after treatment (A549; 12.5 μM): >90%; Percentage of viable cells after treatment (A549; 50 μM): >90%; Percentage of viable cells after treatment (THP-1; 12.5 μM): >90%; Percentage of viable cells after treatment (THP-1; 50 μM): 100%; Percentage of viable cells after treatment (Hep G2; 12.5 μM): >95%; Percentage of viable cells after treatment (Hep G2; 50 μM): >90%
C=CC(=O)O[C@H]1[C@H](C)[C@@H](O[C@@H]2O[C@H](C)C[C@H](N(C)C)[C@H]2O)[C@](C)(OC)C[C@@H](C)C(=O)[C@H](C)[C@@H](O)[C@](C)(O)[C@@H](CC)OC(=O)[C@@H]1C [Example 4, 3-O-Propenoyl-3-O-decladinosyl-6-O-methyl-erythromycin A]	29%	100%	55%	90%	10%	100%	37%	100%	96%	100%	55%	100%	75%	100%	97%	100%	61%	100%	0%	100%	inhibition at 10 µM (human TNF-α; PMA stimulation): 69%; inhibition at 50 µM (human TNF-α; PMA stimulation): 100%; inhibition at 10 µM (human TNF-α; zymosan stimulation): 0%; inhibition at 50 µM (human TNF-α; zymosan stimulation): 100%; Percentage of viable cells after treatment (A549; 12.5 μM): >95%; Percentage of viable cells after treatment (A549; 50 μM): >95%; Percentage of viable cells after treatment (THP-1; 12.5 μM): 100%; Percentage of viable cells after treatment (THP-1; 50 μM): 100%; Percentage of viable cells after treatment (Hep G2; 12.5 μM): >85%; Percentage of viable cells after treatment (Hep G2; 50 μM): >95%
CC[C@H]1OC(=O)[C@H](C)[C@@H](OC(=O)CCN(CC)CC)[C@H](C)[C@@H](O[C@@H]2O[C@H](C)C[C@H](NC)[C@@H]2O)[C@](C)(OC)C[C@@H](C)C(=O)N[C@H](C)[C@@H](O)[C@]1(C)O [Example 10, 3-O-(3-Diethylamino-propionyl)-3-O-decladinosyl-3′-N-demethyl-6-O-methyl-9a-aza-9a-homoerythromycin A]	13%	77%	23%	76%	6%	82%	35%	92%	69%	92%	40%	100%	70%	88%	80%	94%	78%	100%	6%	65%	inhibition at 10 µM (human TNF-α; PMA stimulation): 68%; inhibition at 50 µM (human TNF-α; PMA stimulation): 78%; inhibition at 10 µM (human TNF-α; zymosan stimulation): 10%; inhibition at 50 µM (human TNF-α; zymosan stimulation): 75%; Percentage of viable cells after treatment (A549; 12.5 μM): >80%; Percentage of viable cells after treatment (A549; 50 μM): >90%; Percentage of viable cells after treatment (THP-1; 12.5 μM): 100%; Percentage of viable cells after treatment (THP-1; 50 μM): 100%; Percentage of viable cells after treatment (Hep G2; 12.5 μM): 100%; Percentage of viable cells after treatment (Hep G2; 50 μM): 100%
CC[C@H]1OC(=O)[C@H](C)[C@@H](OC(=O)CCN2CCN(CCN(CC)CC)CC2)[C@H](C)[C@@H](O[C@@H]2O[C@H](C)C[C@H](N(C)C)[C@H]2O)[C@](C)(OC)C[C@@H](C)C(=O)N[C@H](C)[C@@H](O)[C@]1(C)O [Example 18, 6-O-Methyl-3-O-decladinosyl-3-O-{3-[4-(2-Diethylamino-ethyl)-piperazin-1-yl]-propionyl}-9a-aza-9a-homoerythromycin A]	1%	30%	16%	13%	3%	21%	9%	50%	53%	47%	18%	47%	44%	73%	66%	87%	32%	76%	7%	0%	inhibition at 10 µM (human TNF-α; PMA stimulation): 50%; inhibition at 50 µM (human TNF-α; PMA stimulation): 82%; inhibition at 10 µM (human TNF-α; zymosan stimulation): 12%; inhibition at 50 µM (human TNF-α; zymosan stimulation): 0%; Percentage of viable cells after treatment (A549; 12.5 μM): 100%; Percentage of viable cells after treatment (A549; 50 μM): 100%; Percentage of viable cells after treatment (THP-1; 12.5 μM): 100%; Percentage of viable cells after treatment (THP-1; 50 μM): 100%; Percentage of viable cells after treatment (Hep G2; 12.5 μM): >95%; Percentage of viable cells after treatment (Hep G2; 50 μM): 100%
